The term IC50 denotes the concentration at which inhibition is half-maximal.

Values joined by “and” are separate entries in the source; they are usually repeats but may differ in a detail not shown here. Equal values may be shown once. Where a name gives a salt, the structure may show the parent alone.

Results on 31 molecules are retold here after EP0953357A1, “NEPHROTROPIC DRUGS” (Drug Delivery System Institute, Ltd., priority 1997, dated 1998).

The test system of data set [1] is kidney membrane fraction. In words: Effect of sugars on inhibition of specific binding between ^3H-Glc-S-C8 and kidney membrane fraction (Test 8). As to conditions: ^3H-Glc-S-C8 20 pmol/ml, kidney membrane fraction 1 mg protein/ml.
Protocol: In order to estimate structural requirement for recognition in the kidney, an experiment was carried out on the effect of various sugars and sugar derivatives on the inhibition of specific -binding between ^3H-Glc-S-C8 (20 pmol/ml) and the kidney membrane fraction (1 mg protein/ml).
Data set [2] deals with kidney membrane fraction. In words: Effect of glycolipid derivatives on inhibition of specific binding between ^3H-Glc-S-C8 and kidney membrane fraction (Test 9). The settings on record: specific binding of ^3H-Glc-S-C8 to kidney membrane fraction, same manner as Test 4. On the procedure: A membrane fraction was prepared by the method of Stassen F.L. et al. (J. Pharm. Exp. Thera., 223, 50-54, 1982). An experiment on binding was carried out as follows. The membrane fraction prepared above, together with the ^3H-labeled derivative, was incubated in physiological phosphate buffer on ice, followed by ultracentrifugation. The bound product obtained as the sediment by the ultracentrifugation was counted. […]
Commercially available or synthesized glycolipid derivatives were subjected to an binding inhibition experiment in the same manner as in Test 4.

The target in data set [3] is kidney membrane fraction. Description: Inhibition of binding of ^3H-Glc-O-C8-AVP to kidney membrane fraction (Test 4). The settings on record: ^3H-Glc-O-C8-AVP 20 pmol/ml, kidney membrane fraction 1 mg/ml, on ice 10 min. How it is done: A membrane fraction was prepared by the method of Stassen F.L. et al. (J. Pharm. Exp. Thera., 223, 50-54, 1982). An experiment on binding was carried out as follows. The membrane fraction prepared above, together with the ^3H-labeled derivative, was incubated in physiological phosphate buffer on ice, followed by ultracentrifugation. The bound product obtained as the sediment by the ultracentrifugation was counted.
The inhibitory activity of segmental structures of Glc-O-C8-AVP and the like against binding ^3H-Glc-O-C8-AVP (20 pmol/ml) to the kidney membrane fraction (1 mg/ml) (incubation on ice for 10 min) was studied.

Data set [4] can be described thus: Renal selectivity (organ distribution) of thioglucoside-modified products (Test 6). The class given is in vivo. As to conditions: rats; for Conc. in kidney / Renal clearance: ^3H-labeled product, same manner as Test 1 (i.v. 1 nmol/kg, 5 min); for renal selectivity: comparison between AVP derivatives. On the procedure: The organ clearance was determined by the following equation.

Data set [5] is described as follows: Pharmacokinetic test of monkey (Glc-S-C8-CONH-C2-NBD) (Test 10 (2)). As to conditions: monkeys, i.v. 10 nmol/kg, 5 min; n = 2, average. The class given is in vivo. How it is done: In order to investigate the difference in activity of the compounds according to the present invention between animal species, the pharmacokinetic test using monkeys was carried out as follows. […] The monkeys of group A were injected with Glc-S-C8-CONH-C2-NBD, while, for comparison, the monkeys of group B were injected with 4-(2-hydroxyethyl)amino-7-nitrobenz-2-oxa-1,3-diazole (synthesis intermediate prepared in Example 44; hereinafter referred to as "HO-C2-NBD").
Five min after the administration, the monkeys were bled to death; and, immediately after that, each organ was extracted. According to the conventional method, the organs were homogenized and deprotenized. Thereafter, the samples were subjected to separation by reversed phase liquid chromatography. Glc-S-C8-CONH-C2-NBD and HO-C2-NBD were detected and quantitatively determined by fluorescence detector.

As for `OC[C@H]1NC[C@H](O)[C@@H](O)[C@@H]1O` [1-Deoxynojirimycin], the entries for the “Inhibition (%)” value in data set [1] (sample 20 mM) and in data set [1] (sample 100 mM) were 98.9% and 99.6%, respectively.

In the case of `O=CC[C@@H](O)[C@H](O)[C@H](O)CO` [2-Deoxyglucose], the entries for the “Inhibition (%)” value in data set [1] (sample 20 mM) and in data set [1] (sample 100 mM) were 29.2% and 58.3%, respectively.

For `O=C[C@H](F)[C@@H](O)[C@H](O)[C@H](O)CO` [2-Fluoro-2-deoxyglucose], the “Inhibition (%)” value in data set [1] (sample 20 mM) was found to be 37.8%; in data set [1] (sample 100 mM) it was 67.9%.

Turning to `O=C[C@H](O)[C@@H](F)[C@H](O)[C@H](O)CO` [3-Fluoro-3-deoxyglucose], the “Inhibition (%)” value in data set [1] (sample 20 mM) is listed as 9.7%; in data set [1] (sample 100 mM), 18.7%.

On to `O=C[C@H](O)[C@@H](O)[C@H](F)[C@H](O)CO` [4-Fluoro-4-deoxyglucose], for which the “Inhibition (%)” value is 70.2% in data set [1] (sample 20 mM) and 83.9% in data set [1] (sample 100 mM).

Molecule `COC(=O)CCCCCCCCS[C@@H]1N[C@H](CO)[C@@H](O)[C@H](O)[C@H]1O` [5N-Glc-S-C8-COOMe, 8-methoxycarbonyloctyl 5-amino-5-deoxy-1-thio-β-D-glucopyranoside hydrochloride] registered a 50% inhibitory concentration (IC50) in data set [2] of 4.7 µM.

Regarding `COC(=O)CCCCCCCCS[C@@H]1S[C@H](CO)[C@@H](O)[C@H](O)[C@H]1O` [5S-Glc-S-C8-COOMe, 8-methoxycarbonyloctyl 5-deoxy-1,5-dithio-β-D-glucopyranoside], the concentration for half-maximal inhibition (IC50) in data set [2] turned out to be 14 µM.

As to `O=C[C@H](O)[C@@H](O)[C@H](O)[C@H](O)CF` [6-Fluoro-6-deoxyglucose], the “Inhibition (%)” value in data set [1] (sample 20 mM) was 17.8%; in data set [1] (sample 100 mM), 32.5%.

In the case of `CCCCCCCCS[C@@H]1O[C@H](CO)[C@@H](O)[C@@H](O)[C@H]1O` [All-S-C8, Octyl 1-thio-β-D-allopyranoside], the 50% inhibitory concentration (IC50) in data set [2] is 1.1 µM.

Molecule `CCCCCCCCS[C@H]1C[C@@H](O)[C@H](O)[C@@H](CO)O1` [Example 2d-Glc-S-C8, Octyl 2-deoxy-1-thio-β-D-glucopyranoside] showed an IC50 in data set [2] of 0.071 µM.

`CCCCCCCCS[C@@H]1O[C@H](CO)C[C@H](O)[C@H]1O` [Example 4d-Glc-S-C8, n-octyl 4-deoxy-1-thio-β-D-glucopyranoside] showed a concentration for half-maximal inhibition (IC50) in data set [2] of 55 µM.

As for `CCCCCCCCS[C@@H]1O[C@H](CO)[C@H](O)[C@H](O)[C@H]1O` [Gal-S-C8, Octyl 1-thio-β-D-galactopyranoside], the concentration for half-maximal inhibition (IC50) worked out at 120 µM in data set [3] and 37 µM in data set [2].

For `O=C[C@H](O)[C@@H](O)[C@@H](O)[C@H](O)CO` [Galactose], the “Inhibition (%)” value in data set [1] (sample 20 mM) is given as 2.5%; in data set [1] (sample 100 mM) it was 18.9%.

In data set [3], `OC[C@H]1OC(O)[C@H](O)[C@@H](O)[C@@H]1O` (some centres unmarked) [Glc, glucopyranose] registered an IC50 of more than 2000 µM. The “Inhibition (%)” value was 16.7% in data set [1] (sample 20 mM) and 38.4% in data set [1] (sample 100 mM).

As to `COC(=O)CCCCCCCN[C@@H]1O[C@H](CO)[C@@H](O)[C@H](O)[C@H]1O` [Glc-NH-C7-COOMe, N-(7-methoxycarbonyl)heptyl-β-D-glucopyranosylamine], in data set [2], the IC50 was found to be 0.11 µM.

Turning to `CCCCCCO[C@@H]1O[C@H](CO)[C@@H](O)[C@H](O)[C@H]1O` [Glc-O-C6, Hexyl β-D-glucopyranoside], in data set [3], the IC50 is 5.9 µM.

`CCCCCCCCO[C@@H]1O[C@H](CO)[C@@H](O)[C@H](O)[C@H]1O` [Glc-O-C8, Octyl β-D-glucopyranoside]: the IC50 in data set [3] is 2.9 µM; in data set [2], 4.6 µM.

Consider `COC(=O)CCCCCCCCO[C@@H]1O[C@H](CO)[C@@H](O)[C@H](O)[C@H]1O` [Glc-O-C8-COOMe, 8-methoxycarbonyloctylβ-D-glucopyranoside], for which the IC50 in data set [2] is 33 µM.

`CO[C@@H]1O[C@H](CO)[C@@H](O)[C@H](O)[C@H]1O` [Glc-O-CH3, Methyl β-D-glucopyranoside]: the half-maximal inhibitory concentration (IC50) in data set [3] is more than 2000 µM.

As for `CCCCCCCCS[C@@H]1O[C@H](CO)[C@@H](O)[C@H](O)[C@H]1O` [Glc-S-C8, Octyl 1-thio-β-D-glucopyranoside], the IC50 in data set [3] worked out at 0.065 µM; in data set [2], 0.078 µM.

Consider `N=C(N)NCCC[C@H](NC(=O)[C@@H]1CCCN1C(=O)[C@@H]1CSSC[C@H](NC(=O)CCCCCCCCS[C@@H]2O[C@H](CO)[C@@H](O)[C@H](O)[C@H]2O)C(=O)N[C@@H](Cc2ccc(O)cc2)C(=O)N[C@@H](Cc2ccccc2)C(=O)N[C@@H](CCC(N)=O)C(=O)N[C@@H](CC(N)=O)C(=O)N1)C(=O)NCC(N)=O` [Glc-S-C8-AVP], for which, in data set [4], the Conc. in kidney was 29.2±0.9 % of dose/g; the Renal clearance is 3.42 mL/min/g and 3.42 ± 0.05 mL/min/g; the renal selectivity entry is on record as “higher renal selectivity than Glc-O-C8-AVP”.

In the case of `O=C(CCCCCCCCS[C@@H]1O[C@H](CO)[C@@H](O)[C@H](O)[C@H]1O)NCCNc1ccc([N+](=O)[O-])c2nonc12` [Glc-S-C8-CONH-C2-NBD], in data set [5], the “concentration of administered compound: Adrenal” value was 1.87 pmol/mol or g tissue, the “concentration of administered compound: Blood” value is listed as 10.72 pmol/mol or g tissue, the “concentration of administered compound: Heart” value is 3.23 pmol/mol or g tissue and the “concentration of administered compound: Kidney” value is given as 280.32 pmol/mol or g tissue. In addition, in data set [5], the “concentration of administered compound: Liver” value is 13.85 pmol/mol or g tissue, the “concentration of administered compound: Lung” value was 6.90 pmol/mol or g tissue, the “concentration of administered compound: Plasma” value is given as 16.42 pmol/mol or g tissue and the “concentration of administered compound: Spleen” value is on record as 0.55 pmol/mol or g tissue.

For the molecule `COC(=O)CCCCCCCCS[C@@H]1O[C@H](CO)[C@@H](O)[C@H](O)[C@H]1O` [Glc-S-C8-COOMe, 8-methoxycarbonyloctyll-thio-β-D-glucopyranoside], the IC50 in data set [2] came out at 0.59 µM.

With `N=C(N)NCCC[C@H](NC(=O)[C@@H]1CCCN1C(=O)[C@@H]1CSSC[C@H](NC(=O)CCCCCCCCCCCS[C@@H]2O[C@H](CO)[C@@H](O)[C@H](O)[C@H]2O)C(=O)N[C@@H](Cc2ccc(O)cc2)C(=O)N[C@@H](Cc2ccccc2)C(=O)N[C@@H](CCC(N)=O)C(=O)N[C@@H](CC(N)=O)C(=O)N1)C(=O)NCC(N)=O` [Glc-S-C11-AVP], in data set [4], the Conc. in kidney is listed as 40.2±1.5 % of dose/g, the Renal clearance was found to be 4.47 ± 0.33 mL/min/g and the renal selectivity entry is “higher renal selectivity than Glc-S-C8-AVP”.

On to `CC(C)(C)CC(C)(C)S[C@@H]1O[C@H](CO)[C@@H](O)[C@H](O)[C@H]1O` [Glc-S-C(CH3)2-CH2-C(CH3)3, t-Octyl 1-thio-β-D-glucopyranoside], for which the IC50 in data set [2] is 1 µM.

In data set [2], `CCCCC(CCCC)S[C@@H]1O[C@H](CO)[C@@H](O)[C@H](O)[C@H]1O` [Glc-S-CH(C4H9)2, 5-(1-Thio-β-D-glucopyranosyl)nonan] registered an IC50 of 1.5 µM.

The molecule `O=[N+]([O-])c1ccc(S[C@@H]2O[C@H](CO)[C@@H](O)[C@H](O)[C@H]2O)cc1` [Glc-S-pNP, p-Nitrophenyl 1-thio-β-D-glucopyranoside] displayed an IC50 in data set [2] of 0.23 µM.

On to `O=[N+]([O-])c1ccc(NCCO)c2nonc12` [HO-C2-NBD, 4-(2-hydroxyethyl)amino-7-nitrobenz-2-oxa-1,3-diazole, reference compound], for which, in data set [5], the “concentration of administered compound: Adrenal” value is 2.05 pmol/mol or g tissue, the “concentration of administered compound: Blood” value is on record as 7.53 pmol/mol or g tissue, the “concentration of administered compound: Heart” value is listed as 10.92 pmol/mol or g tissue and the “concentration of administered compound: Kidney” value is listed as 2.33 pmol/mol or g tissue. For the same molecule, in data set [5], the “concentration of administered compound: Lung” value is 17.33 pmol/mol or g tissue, the “concentration of administered compound: Plasma” value is on record as 7.51 pmol/mol or g tissue and the “concentration of administered compound: Spleen” value is recorded as 2.35 pmol/mol or g tissue.

In the case of `CCCCCCCCS[C@@H]1O[C@H](CO)[C@@H](O)[C@H](O)[C@@H]1O` [Man-S-C8, Octyl 1-thio-β-D-mannopyranoside], the IC50 in data set [2] was 0.2 µM.

`CCCCCCCCS[C@@H]1OC[C@@H](O)[C@H](O)[C@H]1O` [Xyl-S-C8, Octyl 1-thio-β-D-xylopyranoside] displayed a concentration for half-maximal inhibition (IC50) in data set [2] of 1.5 µM.

As to “arginine vasopressin [AVP, reference compound]”, the IC50 in data set [3] amounted to 150 µM. In addition, in data set [4], the Conc. in kidney is listed as 5.3±0.7 % of dose/g and the Renal clearance came out at 0.49 ± 0.04 mL/min/g.
